Activity calls are given as the source filed them.
Experiments:
[1] = target: DNA (cytosine-5)-methyltransferase 1 (Homo sapiens, UniProt P26358); assay: inhibition of DNA methylation by DNMT1 – biochemical, fluorescent molecular beacon, confirmation (AID 602386); type: functional
[2] = target: T1, Probable nicotinate-nucleotide adenylyltransferase (Staphylococcus aureus (strain N315), UniProt P65502); type: functional, Staphylococcus aureus subsp. aureus N315; settings: read-out: IC50_Mean;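 as to IC50 Mean: confirmatory dose-response retesting of NadD inhibitor hits first found in an ultra-high-throughput screen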
T1 sequence (P65502 whole entry): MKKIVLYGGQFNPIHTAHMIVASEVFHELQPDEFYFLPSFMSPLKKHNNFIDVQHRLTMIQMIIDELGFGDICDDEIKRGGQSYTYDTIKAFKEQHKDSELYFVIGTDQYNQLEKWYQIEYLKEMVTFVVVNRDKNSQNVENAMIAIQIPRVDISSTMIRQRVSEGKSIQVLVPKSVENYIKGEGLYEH

[3] = target: T1, Probable nicotinate-nucleotide adenylyltransferase; type: functional, Staphylococcus aureus subsp. aureus N315
[4] = target: T2, Carboxy-terminal domain RNA polymerase II polypeptide A small phosphatase 1 (Homo sapiens, UniProt Q9GZU7); assay: CTDSP1 inhibitors, concentration-response, biochemical, absorbance readout, ultra-high-throughput screen actives (AID 540297); type: functional
T2 sequence (Q9GZU7 whole entry): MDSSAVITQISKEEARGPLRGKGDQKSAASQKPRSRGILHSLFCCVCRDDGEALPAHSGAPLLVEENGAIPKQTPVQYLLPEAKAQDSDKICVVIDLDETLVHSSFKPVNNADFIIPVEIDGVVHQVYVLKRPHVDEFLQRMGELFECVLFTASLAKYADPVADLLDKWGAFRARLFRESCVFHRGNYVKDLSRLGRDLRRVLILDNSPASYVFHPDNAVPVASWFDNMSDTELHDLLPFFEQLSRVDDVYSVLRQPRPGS

[5] = system: Vero; assay: viability of Vero cells under compound – cytotoxicity control for flavivirus capping enzyme inhibitors (AID 588742); type: functional; settings: Chlorocebus sabaeus
[6] = target: Genome polyprotein (dengue virus type 2, UniProt P29990); assay: flavivirus cap methylation enzyme inhibition – biochemical, confirmation dose response, primary screen (AID 588689); type: functional
Sequence of Genome polyprotein (P29990 2492-3391 limits assumed): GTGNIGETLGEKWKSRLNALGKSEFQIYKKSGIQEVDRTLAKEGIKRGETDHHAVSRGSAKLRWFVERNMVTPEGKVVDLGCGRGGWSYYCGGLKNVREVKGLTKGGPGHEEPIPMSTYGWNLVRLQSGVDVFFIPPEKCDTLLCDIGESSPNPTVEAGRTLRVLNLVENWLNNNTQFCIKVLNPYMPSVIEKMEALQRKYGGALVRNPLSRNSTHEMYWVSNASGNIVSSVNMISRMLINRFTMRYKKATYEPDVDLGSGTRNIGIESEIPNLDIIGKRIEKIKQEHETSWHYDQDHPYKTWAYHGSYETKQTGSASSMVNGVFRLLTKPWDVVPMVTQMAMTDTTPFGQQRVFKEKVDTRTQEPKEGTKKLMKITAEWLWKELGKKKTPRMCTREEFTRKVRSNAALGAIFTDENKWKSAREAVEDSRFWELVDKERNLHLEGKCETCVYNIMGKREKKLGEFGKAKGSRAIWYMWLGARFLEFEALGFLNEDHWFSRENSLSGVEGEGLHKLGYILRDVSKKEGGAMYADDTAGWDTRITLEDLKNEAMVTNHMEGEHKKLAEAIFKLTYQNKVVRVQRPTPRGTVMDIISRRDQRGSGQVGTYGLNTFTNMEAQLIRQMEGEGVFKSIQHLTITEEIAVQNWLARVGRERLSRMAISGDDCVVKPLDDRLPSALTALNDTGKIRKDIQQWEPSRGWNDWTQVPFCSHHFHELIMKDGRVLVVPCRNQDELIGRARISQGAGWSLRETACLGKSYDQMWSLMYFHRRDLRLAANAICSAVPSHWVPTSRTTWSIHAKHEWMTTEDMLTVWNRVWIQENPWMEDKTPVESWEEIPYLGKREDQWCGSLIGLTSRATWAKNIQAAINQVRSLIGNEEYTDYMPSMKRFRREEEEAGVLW

[7] = system: HEK293; assay: cells; settings: Homo sapiens
[8] = system: HEK293; assay: cells; settings: Homo sapiens; remark: listed apart in the source
[9] = viability loss in THP-1 monocytes – THP-1 cells, cytotoxicity control for Vif-APOBEC3G degradation inhibitor project, dose response (AID 1117359); type: functional; settings: THP-1
[10] = target: Ras and Rab interactor 1/Tyrosine-protein kinase ABL1 (Homo sapiens, UniProt P00519+Q13671); type: functional;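 also: biochemical TR-FRET dose-response test measuring inhibition of binding between Rin1 and Abl proteins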
[11] = system: HEK293; assay: EBV LMP1 TES2 canonical NF-kB signalling blockers – cell-based, HEK293, luciferase, cherry-pick, dose response (AID 588343); type: functional; settings: Homo sapiens
[12] = target: COUP transcription factor 2 (Homo sapiens, UniProt P24468); assay: Luminescence-based cell-based high throughput dose response assay to identify inhibitors of COUP-TFII (NR2F2).; type: functional;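 also: HEK293 cells transiently cotransfected with COUP-TFII expression vector and reporter; luciferase reporter luminescence driven by COUP-TFII from the pX2-168 reporter plasmid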
[13] = target: Protein Wnt-3a (Mus musculus, UniProt P27467); assay: antagonism of Wnt3a pathway luciferase reporter – Wnt-LIGHT cells, luminescence, selectivity assay for Gli-SUFU antagonist project, dose response (AID 651570); type: functional; settings: read-out: IC50_Mean;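 also: Wnt-LIGHT reporter cells stimulated with conditioned medium from Wnt3a-producing cells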
[14] = target: Beta-2 adrenergic receptor (Homo sapiens, UniProt P07550); assay: ADRB2 activation measured by internalization – cell-based, FAP fluorogen, flow cytometry, cherry pick 1, dose response (AID 588763); type: functional
Sequence of Beta-2 adrenergic receptor (P07550 whole entry, the tested form may be a part): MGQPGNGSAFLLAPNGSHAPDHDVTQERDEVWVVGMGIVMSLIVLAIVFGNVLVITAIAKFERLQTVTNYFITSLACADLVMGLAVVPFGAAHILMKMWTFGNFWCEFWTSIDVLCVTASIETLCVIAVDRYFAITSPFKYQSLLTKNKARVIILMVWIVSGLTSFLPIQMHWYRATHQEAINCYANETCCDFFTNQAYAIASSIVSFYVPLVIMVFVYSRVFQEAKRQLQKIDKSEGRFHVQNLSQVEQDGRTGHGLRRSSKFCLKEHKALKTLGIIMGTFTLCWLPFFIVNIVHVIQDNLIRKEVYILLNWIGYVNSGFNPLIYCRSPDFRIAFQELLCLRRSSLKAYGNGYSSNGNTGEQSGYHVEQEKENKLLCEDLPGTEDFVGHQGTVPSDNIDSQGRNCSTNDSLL

[15] = target: Hepatocyte nuclear factor 4-alpha (Homo sapiens, UniProt P41235); type: functional, cell-based;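 also: biochemical luminescence-based dose-response counterscreen measuring inhibition of HNF4 dimerization, run alongside a screen for blockers of ABHD5–perilipin-5 interaction; split luciferase complementation of HNF4 fusion proteins in cell lysate measuring dimerization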
Sequence of Hepatocyte nuclear factor 4-alpha (P41235 whole entry, the tested form may be a part): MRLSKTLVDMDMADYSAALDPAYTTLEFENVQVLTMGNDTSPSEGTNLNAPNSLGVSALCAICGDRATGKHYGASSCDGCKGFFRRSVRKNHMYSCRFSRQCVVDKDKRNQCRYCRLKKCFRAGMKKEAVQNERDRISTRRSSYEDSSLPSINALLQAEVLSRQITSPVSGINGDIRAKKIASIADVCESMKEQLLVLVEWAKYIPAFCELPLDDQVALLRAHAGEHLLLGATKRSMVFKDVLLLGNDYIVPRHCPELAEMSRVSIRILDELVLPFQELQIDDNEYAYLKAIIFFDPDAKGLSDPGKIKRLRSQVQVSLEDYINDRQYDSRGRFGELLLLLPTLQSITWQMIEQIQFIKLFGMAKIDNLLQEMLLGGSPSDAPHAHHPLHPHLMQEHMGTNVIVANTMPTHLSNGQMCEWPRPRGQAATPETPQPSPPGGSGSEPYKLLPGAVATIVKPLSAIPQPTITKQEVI

[16] = target: Paired box protein Pax-8 (Homo sapiens, UniProt Q06710); assay: PAX8 transcriptional activity inhibition in RMG-I – RMG-I cells, luciferase, cherry-pick, dose response (AID 687027); type: functional, cell-based;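 also: luciferase reporter driven by Pax8 target thyroperoxidase promoter measured by SteadyGlo luminescence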
[17] = target: Melanocortin receptor 4 (Homo sapiens, UniProt P32245); type: functional, cell-based;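 also: Cell-based assay with luminescence read-out, confirmatory dose-response testing for agonist activity of biased ligands at MC4R; human U2OS cells with tagged receptor and beta-arrestin; potency of agonists that increase receptor coupling to beta-arrestin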
Sequence of Melanocortin receptor 4 (P32245 whole entry): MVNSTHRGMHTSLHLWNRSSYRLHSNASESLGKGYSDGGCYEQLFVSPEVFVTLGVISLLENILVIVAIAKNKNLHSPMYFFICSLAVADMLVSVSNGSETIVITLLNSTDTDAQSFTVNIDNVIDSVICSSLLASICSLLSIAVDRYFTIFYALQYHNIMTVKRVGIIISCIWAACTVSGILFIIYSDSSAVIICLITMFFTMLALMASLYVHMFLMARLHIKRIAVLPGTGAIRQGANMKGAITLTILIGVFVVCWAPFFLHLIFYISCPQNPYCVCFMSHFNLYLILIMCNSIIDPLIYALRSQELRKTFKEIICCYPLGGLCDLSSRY

[18] = target: T3, DNA repair protein RAD52 homolog (Homo sapiens, UniProt P43351); type: functional, biochemical
T3 sequence (P43351 whole entry): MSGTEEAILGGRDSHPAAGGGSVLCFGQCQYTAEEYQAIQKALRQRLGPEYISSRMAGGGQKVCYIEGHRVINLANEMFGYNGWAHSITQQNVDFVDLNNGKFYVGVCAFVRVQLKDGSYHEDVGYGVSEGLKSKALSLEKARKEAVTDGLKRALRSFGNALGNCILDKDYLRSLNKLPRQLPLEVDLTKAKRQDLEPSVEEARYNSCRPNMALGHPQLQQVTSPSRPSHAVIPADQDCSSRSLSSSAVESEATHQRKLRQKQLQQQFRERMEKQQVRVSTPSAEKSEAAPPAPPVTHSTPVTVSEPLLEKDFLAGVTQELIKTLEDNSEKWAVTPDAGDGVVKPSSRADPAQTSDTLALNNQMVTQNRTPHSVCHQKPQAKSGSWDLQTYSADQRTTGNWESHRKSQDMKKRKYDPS

[19] = target: Cyclin-dependent kinase 19 (Homo sapiens, UniProt Q9BWU1); assay: Navigating the Kinome. Panel member name: CDC2L6; type: functional
Sequence of Cyclin-dependent kinase 19 (Q9BWU1 whole entry): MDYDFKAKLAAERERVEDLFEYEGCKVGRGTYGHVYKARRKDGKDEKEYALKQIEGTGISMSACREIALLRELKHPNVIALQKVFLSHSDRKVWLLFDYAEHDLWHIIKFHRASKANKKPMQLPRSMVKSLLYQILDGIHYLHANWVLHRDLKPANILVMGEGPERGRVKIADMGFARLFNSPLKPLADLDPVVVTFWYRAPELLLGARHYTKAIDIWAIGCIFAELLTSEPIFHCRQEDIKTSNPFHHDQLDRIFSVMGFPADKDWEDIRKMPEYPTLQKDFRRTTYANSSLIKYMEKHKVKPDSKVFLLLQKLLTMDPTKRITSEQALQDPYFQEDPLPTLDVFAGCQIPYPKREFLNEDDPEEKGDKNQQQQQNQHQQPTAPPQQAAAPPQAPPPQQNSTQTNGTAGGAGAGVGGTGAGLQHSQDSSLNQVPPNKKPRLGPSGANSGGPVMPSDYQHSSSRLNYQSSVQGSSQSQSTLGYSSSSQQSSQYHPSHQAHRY

[20] = target: Cell division cycle 7-related protein kinase (Homo sapiens, UniProt O00311); type: functional;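 also: value obtained from a kinome-wide kinase panel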
[21] = target: Aurora kinase B (Homo sapiens, UniProt Q96GD4); type: functional
Sequence of Aurora kinase B (Q96GD4 whole entry): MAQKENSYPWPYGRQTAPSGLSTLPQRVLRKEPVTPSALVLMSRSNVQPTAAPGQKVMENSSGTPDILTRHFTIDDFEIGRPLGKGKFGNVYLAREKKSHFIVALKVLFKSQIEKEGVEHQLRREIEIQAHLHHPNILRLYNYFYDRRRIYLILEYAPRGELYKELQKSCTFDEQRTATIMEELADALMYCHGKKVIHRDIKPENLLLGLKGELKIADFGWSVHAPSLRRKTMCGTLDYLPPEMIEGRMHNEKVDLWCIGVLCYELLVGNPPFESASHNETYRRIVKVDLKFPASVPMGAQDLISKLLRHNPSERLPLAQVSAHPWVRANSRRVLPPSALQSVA

[22] = target: Vascular endothelial growth factor receptor 2 (Homo sapiens, UniProt P35968); type: functional
[23] = target: T4, Aurora kinase A (Homo sapiens, UniProt O14965); type: functional;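 also: value from the Navigating the Kinome kinase panel profiling, panel entry STK6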
T4 sequence (O14965 whole entry): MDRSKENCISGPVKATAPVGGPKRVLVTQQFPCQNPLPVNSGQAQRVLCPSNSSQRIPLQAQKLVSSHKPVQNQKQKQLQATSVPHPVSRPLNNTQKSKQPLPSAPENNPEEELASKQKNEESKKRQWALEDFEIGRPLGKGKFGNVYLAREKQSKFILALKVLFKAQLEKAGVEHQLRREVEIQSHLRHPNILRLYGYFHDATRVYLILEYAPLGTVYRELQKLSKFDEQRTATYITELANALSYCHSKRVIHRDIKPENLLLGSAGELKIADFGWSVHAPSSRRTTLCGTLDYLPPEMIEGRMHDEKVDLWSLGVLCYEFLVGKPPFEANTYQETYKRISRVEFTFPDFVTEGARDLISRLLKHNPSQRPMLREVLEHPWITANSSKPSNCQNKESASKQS

[24] = target: Inhibitor of nuclear factor kappa-B kinase subunit epsilon (Homo sapiens, UniProt Q14164); assay: Navigating the Kinome. Panel member name: IKBKE; type: functional
[25] = target: Activin receptor type-1 (Homo sapiens, UniProt Q04771); assay: Navigating the Kinome. Panel member name: ACVR1; type: functional
[26] = target: Cyclin-dependent kinase 8 (Homo sapiens, UniProt P49336); assay: Navigating the Kinome. Panel member name: CDK8; type: functional
Sequence of Cyclin-dependent kinase 8 (P49336 whole entry): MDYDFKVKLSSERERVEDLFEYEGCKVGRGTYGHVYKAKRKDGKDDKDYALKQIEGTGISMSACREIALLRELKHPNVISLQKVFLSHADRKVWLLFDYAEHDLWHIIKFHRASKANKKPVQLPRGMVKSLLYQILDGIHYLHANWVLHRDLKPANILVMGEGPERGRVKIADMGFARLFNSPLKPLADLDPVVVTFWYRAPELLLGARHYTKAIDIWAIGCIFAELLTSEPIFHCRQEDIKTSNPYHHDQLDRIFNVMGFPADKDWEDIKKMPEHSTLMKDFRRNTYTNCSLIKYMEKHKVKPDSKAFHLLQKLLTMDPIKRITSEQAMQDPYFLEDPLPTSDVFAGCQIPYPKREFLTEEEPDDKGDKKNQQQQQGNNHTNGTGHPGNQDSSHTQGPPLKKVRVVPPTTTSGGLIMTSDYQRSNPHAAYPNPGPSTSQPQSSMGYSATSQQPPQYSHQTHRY

[27] = target: T5, ATP-dependent translocase ABCB1 (Homo sapiens, UniProt P08183); assay: P-gp JC-1 efflux blockade concentration-response – Jurkat-DNR cells, flow cytometry, set 2, dose response (AID 504569); type: functional; settings: read-out: EC50_MICROM_;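 also: potency of pump inhibitors that raise cellular JC-1 green fluorescence up to the nicardipine level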
T5 sequence (P08183 whole entry): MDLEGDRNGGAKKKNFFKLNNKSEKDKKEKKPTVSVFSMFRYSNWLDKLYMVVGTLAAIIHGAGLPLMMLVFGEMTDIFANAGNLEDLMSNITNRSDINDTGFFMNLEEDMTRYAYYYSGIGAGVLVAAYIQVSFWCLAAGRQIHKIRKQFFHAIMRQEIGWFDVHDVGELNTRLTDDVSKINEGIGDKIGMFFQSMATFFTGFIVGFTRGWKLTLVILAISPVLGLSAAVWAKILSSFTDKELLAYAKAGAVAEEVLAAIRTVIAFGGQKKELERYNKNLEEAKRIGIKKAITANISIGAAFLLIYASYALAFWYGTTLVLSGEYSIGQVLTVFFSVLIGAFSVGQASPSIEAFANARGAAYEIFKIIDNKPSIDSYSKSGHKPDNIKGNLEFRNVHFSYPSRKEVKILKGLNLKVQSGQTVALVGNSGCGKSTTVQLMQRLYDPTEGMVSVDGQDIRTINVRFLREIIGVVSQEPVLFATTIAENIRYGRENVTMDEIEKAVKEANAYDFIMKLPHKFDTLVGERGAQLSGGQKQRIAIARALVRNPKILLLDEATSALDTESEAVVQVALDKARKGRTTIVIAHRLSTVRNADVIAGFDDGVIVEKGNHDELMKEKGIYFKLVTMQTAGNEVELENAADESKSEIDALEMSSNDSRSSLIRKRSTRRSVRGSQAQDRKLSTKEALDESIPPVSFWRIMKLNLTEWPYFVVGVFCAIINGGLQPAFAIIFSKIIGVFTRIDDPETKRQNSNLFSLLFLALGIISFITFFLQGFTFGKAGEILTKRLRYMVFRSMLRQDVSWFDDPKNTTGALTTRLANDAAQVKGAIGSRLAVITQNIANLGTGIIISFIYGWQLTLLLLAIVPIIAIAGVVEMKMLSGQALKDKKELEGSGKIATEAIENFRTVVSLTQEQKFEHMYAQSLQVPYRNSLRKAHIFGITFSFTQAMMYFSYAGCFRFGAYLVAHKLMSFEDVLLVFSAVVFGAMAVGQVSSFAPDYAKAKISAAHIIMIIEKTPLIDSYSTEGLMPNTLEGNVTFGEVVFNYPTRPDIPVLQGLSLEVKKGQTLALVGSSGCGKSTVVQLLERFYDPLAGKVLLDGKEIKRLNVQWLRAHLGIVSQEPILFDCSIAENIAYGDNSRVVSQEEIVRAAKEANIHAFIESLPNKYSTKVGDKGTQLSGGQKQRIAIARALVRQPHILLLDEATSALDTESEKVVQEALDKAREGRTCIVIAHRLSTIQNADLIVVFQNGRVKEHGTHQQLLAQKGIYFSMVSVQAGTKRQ

[28] = target: T5, ATP-dependent translocase ABCB1; assay: inhibition of BCRP-mediated JC-1 efflux – Ig-MXP3 cells, flow cytometry, set 2, dose response (AID 504566); type: functional; settings: read-out: EC50_MICROM_;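 also: flow cytometry median green fluorescence of retained JC-1 dye; potency of efflux pump inhibition measured as rising substrate retention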
[29] = target: Photoreceptor-specific nuclear receptor (Homo sapiens, UniProt Q9Y5X4); type: functional, cell-based;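 also: CHO-S cells with Gal4-NCOR and VP16-NR2E3 two-hybrid luciferase reporter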
[30] = target: Dual specificity protein kinase CLK4 (Homo sapiens, UniProt Q9HAZ1); type: functional
[31] = target: Heat shock protein HSP 90-alpha (Homo sapiens, UniProt P07900); type: functional, organism-based
[32] = microbe, parasite or virus in culture; type: functional; settings: Mycobacterium tuberculosis
[33] = target: T6, Aryl hydrocarbon receptor (Homo sapiens, UniProt P35869); settings: Potency;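 also: confirmatory quantitative high-throughput screen measuring activation of the AhR signaling pathway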
T6 sequence (P35869 whole entry): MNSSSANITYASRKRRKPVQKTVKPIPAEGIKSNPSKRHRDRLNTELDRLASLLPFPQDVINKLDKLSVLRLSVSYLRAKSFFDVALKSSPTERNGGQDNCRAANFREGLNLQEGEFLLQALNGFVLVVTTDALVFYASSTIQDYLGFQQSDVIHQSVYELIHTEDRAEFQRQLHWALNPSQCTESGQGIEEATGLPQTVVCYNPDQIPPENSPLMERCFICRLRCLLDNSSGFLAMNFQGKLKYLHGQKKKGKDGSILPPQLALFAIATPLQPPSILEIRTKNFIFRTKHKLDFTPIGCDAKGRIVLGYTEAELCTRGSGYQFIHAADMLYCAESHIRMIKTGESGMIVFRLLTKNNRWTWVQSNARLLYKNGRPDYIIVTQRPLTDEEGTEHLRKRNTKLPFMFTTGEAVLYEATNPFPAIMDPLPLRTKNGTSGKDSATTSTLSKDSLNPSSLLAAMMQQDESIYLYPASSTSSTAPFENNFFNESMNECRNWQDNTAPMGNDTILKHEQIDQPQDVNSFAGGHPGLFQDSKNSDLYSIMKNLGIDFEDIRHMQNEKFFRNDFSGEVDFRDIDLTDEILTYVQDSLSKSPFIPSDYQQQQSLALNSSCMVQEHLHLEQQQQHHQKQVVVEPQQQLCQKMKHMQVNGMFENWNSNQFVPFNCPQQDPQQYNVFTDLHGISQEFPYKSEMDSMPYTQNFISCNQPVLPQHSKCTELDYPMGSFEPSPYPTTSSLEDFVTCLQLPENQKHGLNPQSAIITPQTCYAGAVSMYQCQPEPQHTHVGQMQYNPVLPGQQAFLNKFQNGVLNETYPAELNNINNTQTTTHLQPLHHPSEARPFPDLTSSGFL

## CN(C)C(CNC(=O)c1cc(-c2ccco2)nc2ccccc12)c1ccccc1 (stereo unspecified)
[1]
  IC50: 6.25 µM (active)
[2]
  IC50: 25.9 µM (active)
[3]
  IC50: 11.2 µM (active)
[4]
  IC50: 2.75 µM (active)

## Cn1cccc1/C=C1\C(=O)NC(=O)N(Cc2ccccc2)C1=O
[5]
  CC50: > 40 µM (active)
[6]
  IC50: 23.4 µM (active)
[7]
  EC50: > 59.6 µM (inactive)
[8]
  EC50: > 59.6 µM (inactive)
[9]
  CC50: > 40 µM (active)

## O=C(Nc1ccc(O)cc1C(=O)O)c1cccc(Br)c1
[10]
  IC50: 19.1 µM (inactive)

## COc1ccc(N2CCN(c3[nH]cnc4c5ccccc5nc3-4)CC2)cc1
[11]
  AC50: 0.865 µM (active)
[12]
  IC50: 5.54 µM (active)
[13]
  IC50: 1.14 µM (active)

## Cc1ccc(NC(=O)c2ccc(N3CCOCC3)c([N+](=O)[O-])c2)cc1S(=O)(=O)N1CCOCC1
[14]
  EC50: 10.1 µM (inactive)

## Cc1ccc(S(=O)(=O)N2C[C@H]3n4c(=O)ccc(=O)n4C[C@H](OC(=O)Nc4cccs4)[C@@]3(O)C2)cc1
[15]
  IC50: 14.6 µM (inactive)

## CC(=O)Nc1cc(-c2cccc(C(=O)NCCN(C)C)c2)cn2c(-c3cccc(C(F)(F)F)c3)cnc12
[16]
  AC50: 11.5 µM (active)
[17]
  EC50: > 89.2 µM (inactive)
[18]
  AC50: 3.93 µM (active)

## O=C(O)c1ccccc1Nc1ccnc(N2CCCCC2)n1
[19]
  Ki: > 100 µM (inactive)
[20]
  Ki: 3.98 µM (active)

## Cc1n[nH]c2c1c(=O)n(C)c1ccccc21
[21]
  Ki: 0.0501 µM (active)
[22]
  Ki: 0.631 µM (active)
[23]
  Ki: 1 µM (active)

## Cc1cccc(NC(=O)Nc2ccc(-c3nn(C)c4ncnc(N)c34)cc2)c1
[24]
  Ki: 0.501 µM (active)
[21]
  Ki: 0.00158 µM (active)
[23]
  Ki: 0.0398 µM (active)

## Cc1nn(C)c(=O)c(N)c1-c1ccccc1
[25]
  Ki: 50.1 µM (active)
[26]
  Ki: 31.6 µM (active)

## O=C(c1ccoc1)N1CCN(c2cc(-c3ccccc3)nc3cc(-c4ccc(Br)cc4)nn23)CC1
[27]
  EC50: 1.06 µM (active)
[28]
  EC50: 0.6 µM (active)

## COc1ccc(CNC(=O)c2cccc3c(-c4ccc(F)c(F)c4)coc23)cc1OC
[29]
  IC50: 4.63 µM (active)

## O=c1cc(Cc2nc3ccccc3[nH]2)[nH]n1-c1ccccc1
[30]
  Ki: 1.26 µM (active)
[19]
  Ki: > 100 µM (inactive)

## CC(=O)N1CCN(c2ccc(OC[C@H]3CO[C@](Cn4ccnc4)(c4ccc(Cl)cc4Cl)O3)cc2)CC1 [KETOCONAZOLE]
[31]
  AC50: 0.435 µM (active)
[32]
  CC50: > 40 µM (active)
[33]
  AC50: 44.7 µM (inconclusive)

Source: ChEMBL document CHEMBL1201862, “PubChem BioAssay data set” (2004)
